pIC50: −log10 of the molar value. Counter-ions that a name gives are not always drawn.
Tests used:
[1] = target: T1, rat liver FBPase (Rattus norvegicus, UniProt P19112); assay: Inhibition of Rat Liver FBPase; type: biochemical; conditions: read-out: IC50 (rlFBPase)
T1 construct: made in house; host or cells: E. coli BL21
T1 sequence (P19112 2-363 limits assumed): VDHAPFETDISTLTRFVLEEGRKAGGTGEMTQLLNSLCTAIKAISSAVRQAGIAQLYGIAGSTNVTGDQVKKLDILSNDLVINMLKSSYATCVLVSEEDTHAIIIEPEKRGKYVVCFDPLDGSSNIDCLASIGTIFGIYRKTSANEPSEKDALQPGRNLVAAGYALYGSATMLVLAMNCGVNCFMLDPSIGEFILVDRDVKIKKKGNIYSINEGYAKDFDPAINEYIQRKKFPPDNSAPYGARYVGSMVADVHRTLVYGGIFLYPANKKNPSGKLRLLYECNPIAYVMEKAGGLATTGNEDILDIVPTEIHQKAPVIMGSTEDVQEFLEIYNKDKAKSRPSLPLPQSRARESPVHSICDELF
Protocol: E. coli strain BL21 transformed with a human liver FBPase-encoding plasmid was obtained from Dr. M. R. El-Maghrabi at the State University of New York at Stony Brook. The enzyme was typically purified from 10 liters of recombinant E. coli culture as described (M. Gidh-Jain et al., 1994, The Journal of Biological Chemistry 269, pp 27732-27738). Enzymatic activity was measured spectrophotometrically in reactions that coupled the formation of product (fructose 6-phosphate) to the reduction of dimethylthiazoldiphenyltetrazolium bromide (MTT) via NADP^+ and phenazine methosulfate (PMS), using phosphoglucose isomerase and glucose 6-phosphate dehydrogenase as the coupling enzymes. Reaction mixtures (200 μl) were made up in 96-well microtitre plates, and consisted of 50 mM Tris-HCl, pH 7.4, 100 mM KCl, 5 mM EGTA, 2 mM MgCl2, 0.2 mM NADP, 1 mg/ml BSA, 1 mM MTT, 0.6 mM PMS, 1 unit/ml phosphoglucose isomerase, 2 units/ml glucose 6-phosphate dehydrogenase, and 0.150 mM substrate (fructose 1,6-bisphosphate). Inhibitor concentrations were varied from 0.01 μM to 10 μM. Reactions were started by the addition of 0.002 units of pure hlFBPase, and were monitored for 7 minutes at 590 nm in a Molecular Devices Plate Reader (37° C.).
E. coli strain BL21 transformed with a rat liver FBPase-encoding plasmid was obtained from Dr. M. R. El-Maghrabi at the State University of New York at Stony Brook. Recombinant FBPase was purified as described (El-Maghrabi, M. R., and Pilkis, S. J. (1991) BioChem. Biophys. Res. Commun. 176, 137-144) The enzyme assay was identical to that described above for human liver FBPase.

[2] = target: T2, human liver FBPase (Homo sapiens, UniProt P09467); assay: Inhibition of Human Liver FBPase; type: biochemical; conditions: read-out: IC50 (hlFBPase)
T2 construct: made in house; host or cells: E. coli BL21
T2 sequence (P09467 2-338 limits assumed): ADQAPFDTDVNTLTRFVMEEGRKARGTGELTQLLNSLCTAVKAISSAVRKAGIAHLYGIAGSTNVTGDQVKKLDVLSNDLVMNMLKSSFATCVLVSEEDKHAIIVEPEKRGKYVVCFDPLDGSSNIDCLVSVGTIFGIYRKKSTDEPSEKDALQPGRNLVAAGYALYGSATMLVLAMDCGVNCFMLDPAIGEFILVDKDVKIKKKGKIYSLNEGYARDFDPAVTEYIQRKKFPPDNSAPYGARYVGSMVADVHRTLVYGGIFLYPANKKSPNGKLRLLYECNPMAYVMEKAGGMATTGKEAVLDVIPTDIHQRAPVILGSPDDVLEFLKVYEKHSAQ
Protocol: […] […] Enzymatic activity was measured spectrophotometrically in reactions that coupled the formation of product (fructose 6-phosphate) to the reduction of dimethylthiazoldiphenyltetrazolium bromide (MTT) via NADP^+ and phenazine methosulfate (PMS), using phosphoglucose isomerase and glucose 6-phosphate dehydrogenase as the coupling enzymes. […] Inhibitor concentrations were varied from 0.01 μM to 10 μM. Reactions were started by the addition of 0.002 units of pure hlFBPase, and were monitored for 7 minutes at 590 nm in a Molecular Devices Plate Reader (37° C.).

Row | Compound | pIC50 [1] | pIC50 [2] | melting point
1 | Nc1ncnc2c1ncn2[C@@H]1O[C@H](COP(=O)(O)O)[C@@H](O)[C@H]1O [AMP, reference compound] | 4.70 | – | –
2 | CC(C)Cc1sc(N)nc1-c1ccc(P(=O)(O)O)o1 [Compound 3.1, 2-amino-5-isobutyl-4-[2-(5-phosphono)furanyl]thiazole] | 6.74 | – | –
3 | CCOC(=O)c1sc(N)nc1-c1ccc(P(=O)(O)O)o1 [Compound 3.25, 2-Amino-5-ethoxycarbonyl-4-[2-(5-phosphono)furanyl]thiazole] | 6.30 | – | –
4 | Nc1nc(-c2cccc(P(=O)(O)O)n2)cs1 [Compound 3.67, 2-Amino-4-[2-(6-phosphono)pyridyl]thiazole hydrobromide] | – | 5.70 | –
5 | CC(C)Cc1[se]c(N)nc1-c1ccc(P(=O)(O)O)o1 [Compound 3.70, 2-Amino-5-isobutyl-4-[2-(5-phosphono)furanyl]selenazole] | 6.82 | 7.40 | –
6 | Nc1nc(-c2ccc(P(=O)(O)O)o2)c(-c2cccs2)s1 [Compound 6.3] | 6.30 | – | –
7 | CCOC(=O)c1oc(N)nc1-c1ccc(P(=O)(O)O)o1 [Compound 10.27, 2-Amino-5-ethoxycarbonyl-4-[2-(5-phosphono)furanyl]oxazole] | 5.54 | 7.42 | –
8 | CCCSc1oc(N)nc1-c1ccc(P(=O)(O)O)o1 [Compound 10.43, 2-Amino-5-propylthio-4-[2-(5-phosphono)furanyl]oxazole] | 6.10 | 7.15 | –
9 | Nc1ccc(Br)c(-c2ccc(P(=O)(O)O)o2)n1 [Compound 15.2, 6-Amino-3-bromo-2-[2-(5-phosphono)furanyl]pyridine] | 5.89 | – | –
10 | CCc1cc(CC)c(-c2ccc(P(=O)(O)O)o2)nc1N [Compound 15.4, 2-amino-3,5-diethyl-6-[2-(5-phosphono)furanyl]pyridine] | 5.39 | – | 217 to 218 °C
11 | O=P(O)(O)c1ccc(-c2ccccn2)o1 [Compound 15.6, 2-[2-(5-Phosphono)furanyl]pyridine] | 5.15 | – | –
12 | CCCc1ccc(N)nc1-c1ccc(P(=O)(O)O)o1 [Compound 15.14, 6-Amino-3-propyl-2-[2-(5-phosphono)furanyl]pyridine] | 6.17 | 7.49 | –
13 | Nc1ccc(C2CC2)c(-c2ccc(P(=O)(O)O)o2)n1 [Compound 15.20, 2-Amino-5-cyclopropyl-6-[2-(5-phosphono)furanyl]pyridine] | 6.22 | 7.40 | –
14 | CSc1nccnc1-c1ccc(P(=O)(O)O)o1 [Compound 17.6, 3-Methylthio-2-[2-(5-phosphono)furanyl]pyrazine] | – | 6.21 | –
15 | Nc1nc(-c2ccccc2)nc(-c2ccc(P(=O)(O)O)o2)n1 [Compound 17.11, 2-Amino-4-phenyl-6-[2-(5-phosphono)furanyl]triazine] | – | 6.11 | –
16 | CCc1sc(N)nc1C(=O)OCP(=O)(O)O [Compound 18.3, 2-amino-5-ethyl-4-phosphonomethoxycarbonylthiazole] | 6.31 | 7.30 | –
17 | Nc1nc(C(=O)NCP(=O)(O)O)c(Br)s1 [Compound 18.11, 2-Amino-5-bromo-4-[(N-phosphonomethyl)carbamoyl]thiazole] | – | 6.48 | –
18 | CC(C)c1sc(N)nc1C(=O)OCP(=O)(O)O [Compound 18.20, 2-Amino-5-isopropyl-4-phosphonomethoxycarbonylthiazole] | 6.55 | 7.41 | –
19 | Nc1nc(NC(=O)CP(=O)(O)O)ccc1Br [Compound 18.25, 2-Amino-3-bromo-6-[(N-phosphonoacetyl)amino]pyridine] | – | 5.70 | –
20 | CC(C)Cc1cn(C)nc1-c1ccc(P(=O)(O)O)o1 [Compound 19.2, 1-methyl-4-isobutyl-3-[2-(5-phosphono)furanyl]pyrazole] | – | 6.40 | –
21 | CSc1sc(N)nc1CCC(F)(F)P(=O)(O)O [Compound 22.2, 2-Amino-5-methylthio-4-[1-(3-phosphono-3,3-difluoro)propyl]thiazole] | – | 5.55 | –
22 | Cc1c(Cl)c(OCP(=O)(O)O)c2nc(N)sc2c1Cl [Compound 29.5, 2-Amino-5,7-dichloro-6-methyl-4-phosphonomethoxybenzothiazole] | – | – | > 230 °C (dec.)

The next lines start with the values.

Row | pIC50 [1] | pIC50 [2] | melting point | Compound
23 | – | – | > 230 °C (dec.) | Nc1nc2c(OCP(=O)(O)O)cc(C(=O)O)cc2s1 [Compound 29.6, 2-Amino-4-phosphonomethoxy-6-carboxybenzothiazole]
24 | – | – | > 250 °C (dec.) | Nc1nc2c(OCP(=O)(O)O)cc(Cl)cc2s1 [Compound 31.3, 2-Amino-6-chloro-4-phosphonomethoxybenzothiazole]
25 | – | – | > 250 °C (dec.) | Nc1nc2c(OCP(=O)(O)O)cc(Cl)c(Cl)c2s1 [Compound 31.4, 2-Amino-6,7-dichloro-4-phosphonomethoxybenzothiazole]
26 | – | – | > 250 °C (dec.) | Cc1cc(OCP(=O)(O)O)c2nc(N)sc2c1 [Compound 32.2, 2-Amino-6-methyl-4-phosphonomethoxybenzothiazole]
27 | – | – | > 250 °C (dec.) | N#Cc1ccc(OCP(=O)(O)O)c2nc(N)sc12 [Compound 32.3, 2-Amino-7-cyano-4-phosphonomethoxybenzothiazole]
28 | 6.80 | 7.66 | – | CCc1c(SC#N)cc(OCP(=O)(O)O)c2nc(N)sc12 [Compound 34.1, 2-amino-7-ethyl-6-thiocyano-4-phosphonomethoxybenzothiazole]
29 | – | – | > 250 °C (dec.) | CCc1cc(OCP(=O)(O)O)c2nc(N)sc2c1F [Compound 34.5, 2-Amino-6-ethyl-7-fluoro-4-phosphonomethoxybenzothiazole]
30 | – | – | > 250 °C (dec.) | Cc1c(Cl)cc(OCP(=O)(O)O)c2nc(Cl)sc12 [Compound 37.2, 2-Chloro-4-phosphonomethoxy-6-chloro-7-methyl benzothiazole]
31 | – | – | > 250 °C (dec.) | CCCCCCc1c(C)cc(OCP(=O)(O)O)c2nc(N)sc12 [Compound 40.2, 2-Amino-6-methyl-7-(n-hexyl)-4-phosphonomethoxybenzothiazole]
32 | – | – | > 220 °C (dec.) | CCc1cc(OCP(=O)(O)O)c2nc(N)sc2c1 [Compound 42.1, 2-Amino-6-ethyl-4-phosphonomethoxybenzothiazole]
33 | – | – | > 220 °C (dec.) | CCCOc1c(SC#N)cc(OCP(=O)(O)O)c2nc(N)sc12 [Compound 44.1, 2-Amino-7-propyloxy-6-thiocyano-4-phosphonomethoxy benzothiazole]
34 | – | – | > 230 °C (dec.) | COc1cc(OCP(=O)(O)O)c2nc(N)sc2c1 [Compound 45.1, 2-Amino-6-methoxy-4-phosphonomethoxybenzothiazole]
35 | – | – | > 250 °C (dec.) | Cc1cc(OCP(=O)(O)O)c2nc(N)sc2c1Br [Compound 47.1, 2-Amino-7-bromo-6-methyl-4-phosphonomethoxybenzothiazole]
36 | – | – | > 250 °C (dec.) | Cc1cc(OCP(=O)(O)O)c2nc(N)sc2c1Cl [Compound 48.2, 2-Amino-7-chloro-6-methyl-4-phosphonomethoxybenzothiazole]
37 | 6.26 | – | – | CCc1cc(F)c(N)c2nc(-c3ccc(P(=O)(O)O)o3)n(CC(C)C)c12 [Compound A, 4-Amino-5-fluoro-7-ethyl-1-isobutyl-2-(2-phosphono-5-furanyl)benzimidazole]
38 | 5.68 | – | – | Nc1c(F)ccc2c1nc(-c1ccc(P(=O)(O)O)o1)n2CC1CC1 [Compound B, 4-Amino-5-fluoro-1-cyclopropylmethyl-2-(2-phosphono-5-furanyl)benzimidazole]
